The supplement of paper PMC10307832

Columns and labels:
Experiment in all cases: relative viability (nuclei count vs DMSO), 5 days (fraction); higher = more cells survive
CUDC-101 + AZD7762 = compound: C#Cc1cccc(Nc2ncnc3cc(OC)c(OCCCCCCC(=O)NO)cc23)c1 [CUDC-101] + NC(=O)Nc1cc(-c2cccc(F)c2)sc1C(=O)N[C@H]1CCCNC1 [AZD7762] (partner 0.2 µM)
Procedure, shortened: (§1)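 Each reported value is a median over duplicate plates. It expresses relative viability: treated-well nuclei count divided by vehicle-well nuclei count. Lung cancer cell lines in 1536-well plates were dosed by pin tool a day after seeding, alone with one drug or with a fixed anchor-drug dose plus five library-drug doses (not always all listed) in √10 steps, and nuclei were counted after 5 days.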

[1] = compound: C1=CC=C2C(=C1)N=C(S2)C(C#N)C3=NC(=NC=C3)NCCC4=CN=CC=C4 + NC(=O)Nc1cc(-c2cccc(F)c2)sc1C(=O)N[C@H]1CCCNC1 [AZD7762] (partner 0.2 µM)
Procedure, shortened: as §1

CUDC-101 + Tozasertib = compound: C#Cc1cccc(Nc2ncnc3cc(OC)c(OCCCCCCC(=O)NO)cc23)c1 [CUDC-101] + Cc1cc(Nc2cc(N3CCN(C)CC3)nc(Sc3ccc(NC(=O)C4CC4)cc3)n2)n[nH]1 [Tozasertib] (partner 0.1 µM)
Procedure, shortened: as §1

CUDC-101 + Alpelisib = compound: C#Cc1cccc(Nc2ncnc3cc(OC)c(OCCCCCCC(=O)NO)cc23)c1 [CUDC-101] + Cc1nc(NC(=O)N2CCC[C@H]2C(N)=O)sc1-c1ccnc(C(C)(C)C(F)(F)F)c1 [Alpelisib] (partner 2 µM)
Procedure, shortened: as §1

Cell Line	relative viability (CUDC-101 + AZD7762; first compound 0.01 µM)	relative viability (CUDC-101 + AZD7762; first compound 0.03162 µM)	relative viability (CUDC-101 + AZD7762; first compound 0.1 µM)	relative viability (CUDC-101 + AZD7762; first compound 0.3162 µM)	relative viability (CUDC-101 + AZD7762; first compound 1 µM)	relative viability ([1]; first compound 0.005 µM)	relative viability ([1]; first compound 0.01581 µM)	relative viability ([1]; first compound 0.05 µM)	relative viability ([1]; first compound 0.1581 µM)	relative viability ([1]; first compound 0.5 µM)	relative viability (CUDC-101 + Tozasertib; first compound 0.01 µM)	relative viability (CUDC-101 + Tozasertib; first compound 0.03162 µM)	relative viability (CUDC-101 + Tozasertib; first compound 0.1 µM)	relative viability (CUDC-101 + Tozasertib; first compound 0.3162 µM)	relative viability (CUDC-101 + Tozasertib; first compound 1 µM)	relative viability (CUDC-101 + Alpelisib; first compound 0.01 µM)	relative viability (CUDC-101 + Alpelisib; first compound 0.03162 µM)	relative viability (CUDC-101 + Alpelisib; first compound 0.1 µM)	relative viability (CUDC-101 + Alpelisib; first compound 0.3162 µM)	relative viability (CUDC-101 + Alpelisib; first compound 1 µM)
EMC-BAC-2	1.08	1.09	1.06	0.947	0.443	1.13	1.04	0.945	1.22	0.875	0.312	0.208	0.251	0.209	0.199	0.759	0.737	0.757	0.741	0.499
EPLC-272H	0.187	0.139	0.175	0.109	0.115	0.307	0.243	0.254	0.25	0.21	0.216	0.284	0.306	0.231	0.121	0.985	0.887	0.92	0.926	0.845
H3255	1.01	0.721	0.546	0.556	0.259	0.993	0.876	0.912	0.916	0.829	0.649	0.591		0.549	0.135	0.71	0.552	0.177	0.375	0.136
HARA	0.31	0.507		0.24	0.131	0.2	0.358	0.38	0.275	0.356	0.116	0.108	0.101	0.0938	0.0704	0.752	0.661	0.583	0.54	0.225
HCC-15	1.3	1.08	1.2	1.15	1.18	1.02	1.23	1.25	1.51	1.24	0.383	0.368	0.314	0.322	0.238	0.875	0.888	0.909	0.909	0.763
HCC-44	1.04	1.01	1.05	0.981	1.06	1.12	0.984	1.01	0.997	0.998	0.795	0.899	0.999	0.917	0.7	0.641	0.664	0.771	0.781	0.685
HCC-78	0.66	0.531	0.603	0.355	0.323	0.619	0.593	0.739	0.697	0.576	0.401	0.405	0.36	0.316	0.184	0.288	0.282	0.452	0.256	0.146
HCC-366	0.254	0.174	0.285	0.289	0.211	0.199	0.254	0.288	0.279	0.129	0.127	0.111	0.0975	0.111	0.0886	0.555	0.197	0.437	0.547	0.337
